Laboratory results reported in patent US20220241249A1, “PHARMACEUTICAL COMPOSITION AND KIT CONTAINING NOVEL PENAM DERIVATIVE OR SALT THEREOF AND ONE OR MORE COMPOUNDS SELECTED FROM beta-LACTAMASE INHIBITORY COMPOUND AND ANTIBACTERIAL COMPOUND OR SALTS THEREOF” (priority 2019, published 2022).
≈ marks a conversion by molar mass, not a printed value.

What was measured:
Assay in all cases: Antibacterial activity evaluation test, MIC by broth microdilution (CLSI)
Type in all cases: cell-based
[1] = test system: OXA-48-containing Klebsiella pneumoniae strain (Y-1062); conditions: for MIC: Klebsiella pneumoniae
Description: (§1) The minimum inhibitory concentration (MIC) was measured according to the Clinical and Laboratory Standards Institute (CLSI) standard method by using the following broth microdilution method.
(§2) As bacteria, a Pseudomonas aeruginosa strain ATCC27853, an AmpC-derepressed Pseudomonas aeruginosa mutant strain (S-3028), an IMP-1-containing Pseudomonas aeruginosa strain (S-2838), a VIM-2-containing Pseudomonas aeruginosa strain (S-3779), a GES-19 and GES-20-containing Pseudomonas aeruginosa strain (S-3759), a CTX-M-15-containing Escherichia coli strain (TK-1747), a KPC-2-containing Klebsiella pneumoniae strain (Y-995), an OXA-48-containing Klebsiella pneumoniae strain (Y-1062), and an NDM-1-containing Klebsiella pneumoniae strain (Y-1007) were used. The test bacterial cells that had been cultured overnight on a Mueller Hinton agar medium were scraped off, suspended at a density equivalent to 0.5 McFarland standard, and diluted 10-fold, thereby obtaining an inoculum. A cation-adjusted Mueller Hinton medium containing a test compound was inoculated with 0.005 mL of the inoculum, and the cells were cultured at 35° C. for 16 to 20 hours. The minimum drug concentration at which the growth of bacteria was not visually observed was defined as MIC (μg/mL).
(§3) An antibacterial activity evaluation test was performed in the same manner as in Test Example 1.

[2] = test system: VIM-2-containing Pseudomonas aeruginosa strain (S-3779); conditions: for MIC: Pseudomonas aeruginosa
Description: as §1, §2, §3

[3] = test system: GES-19 and GES-20-containing Pseudomonas aeruginosa strain (S-3759); conditions: for MIC: Pseudomonas aeruginosa
Description: as §1, §2, §3

[4] = test system: IMP-1-containing Pseudomonas aeruginosa strain (S-2838); conditions: for MIC: Pseudomonas aeruginosa
Description: as §1, §2, §3

[5] = test system: NDM-1-containing Klebsiella pneumoniae strain (Y-1007); conditions: for MIC: Klebsiella pneumoniae
Description: as §1, §2, §3

[6] = test system: AmpC-derepressed Pseudomonas aeruginosa mutant strain (S-3028); conditions: for MIC: Pseudomonas aeruginosa
Description: as §1, §2, §3

[7] = test system: KPC-2-containing Klebsiella pneumoniae strain (Y-995); conditions: for MIC: Klebsiella pneumoniae
Description: as §1, §2, §3

[8] = test system: Pseudomonas aeruginosa strain ATCC27853; conditions: Pseudomonas aeruginosa, ATCC27853
Description: as §1, §2, §3

[9] = test system: CTX-M-15-containing Escherichia coli strain (TK-1747); conditions: for MIC: Escherichia coli
Description: as §1, §2, §3

| SMILES | MIC [1] [µg/mL] | MIC [2] [µg/mL] | MIC [3] [µg/mL] | MIC [4] [µg/mL] | MIC [5] [µg/mL] | MIC [6] [µg/mL] | MIC [7] [µg/mL] | MIC [8] [µg/mL] | MIC [9] [µg/mL] | Antibacterial activity (MIC) Klebsiella pneumoniae Y-1062 ([1]; Klebsiella pneumoniae Y-1062) [µg/mL] | Antibacterial activity (MIC) Pseudomonas aeruginosa S-3779 ([2]; Pseudomonas aeruginosa S-3779) [µg/mL] | Antibacterial activity (MIC) Pseudomonas aeruginosa S-3759 ([3]; Pseudomonas aeruginosa S-3759) [µg/mL] | Antibacterial activity (MIC) Pseudomonas aeruginosa S-2838 ([4]; Pseudomonas aeruginosa S-2838) [µg/mL] | Antibacterial activity (MIC) Klebsiella pneumoniae Y-1007 ([5]; Klebsiella pneumoniae Y-1007) [µg/mL] | Antibacterial activity (MIC) Pseudomonas aeruginosa S-3028 ([6]; Pseudomonas aeruginosa S-3028) [µg/mL] | Antibacterial activity (MIC) Klebsiella pneumoniae Y-995 ([7]; Klebsiella pneumoniae Y-995) [µg/mL] | Antibacterial activity (MIC) Pseudomonas aeruginosa ATCC 27853 [8] [µg/mL] | Antibacterial activity (MIC) Escherichia coli TK-1747 ([9]; Escherichia coli TK-1747) [µg/mL] |
| --- | --- | --- | --- | --- | --- | --- | --- | --- | --- | --- | --- | --- | --- | --- | --- | --- | --- | --- |
| CC(C)(O/N=C(\C(=O)NC1C(=O)N2C[C@@](C(=O)O)(N3CCN(NC(=O)C(=O)NCCNC(=O)C(=O)c4ccc(O)c(O)c4Cl)C3=O)S[C@H]12)c1csc(N)n1)C(=O)O (stereo partly drawn) [Example 121, (3R,5R,6R)-6-((Z)-2-(2-aminothiazol-4-yl)-2-(((2-carboxypropan-2-yl)oxy)imino)aceta-mido)-3-(3-(2-((2-(2-(2-chloro-3,4-dihydroxy-phenyl)-2-oxoaceta-mido)ethyl)amino)-2-oxoacetamido)-2-oxo-imidazolidin-1-yl)-7-oxo-4-thia-1-azabicyclo-[3.2.0]heptane-3-carbox-ylic acid] | 0.5 (≈ 0.585 µM) | 1 (≈ 1.17 µM) | 2 (≈ 2.34 µM) | 4 (≈ 4.68 µM) | 0.12 (≈ 0.14 µM) | 2 (≈ 2.34 µM) | 0.25 (≈ 0.292 µM) | 2 (≈ 2.34 µM) | < 0.06 | – | – | – | – | – | – | – | – | – |
| CC(C)(O/N=C(\C(=O)N[C@@H]1C(=O)N2C[C@@](C(=O)O)(N3CCN(NC(=O)c4c[nH]c5cc(O)c(O)cc5c4=O)C3=O)S[C@H]12)c1csc(N)n1)C(=O)O [Example 154, (3R,5R,6R)-6-((Z)-2-(2-aminothiazol-4-yl)-2-(((2-carboxypropan-2-yl)oxy)imino)acetamido)-3-(3-(6,7-dihydroxy-4-oxo-1,4-dihydroquinoline-3-carboxamido)-2-oxoimidazolidin-1-yl)-7-oxo-4-thia-1-azabicyclo[3.2.0]heptane-3-carboxylic acid] | – | – | – | – | – | – | – | – | – | 2 | 2 | 4 | 4 | 0.25 | 0.5 | 0.25 | 2 | 0.5 |
| CC(C)(O/N=C(\C(=O)N[C@@H]1C(=O)N2C[C@@](C(=O)O)(N3CCN(NC(=O)C(=O)NNC(=O)C(=O)c4ccc(O)c(O)c4Cl)C3=O)S[C@H]12)c1csc(N)n1)C(=O)O [Example 88, (3R,5R,6R)-6-((Z)-2-(2-aminothiazol-4-yl)-2-(((2-carboxypropan-2-yl)oxy)imino)acetamido)-3-(3-(2-(2-(2-(2-chloro-3,4-dihydroxyphenyl)-2-oxoacetyl)hydradienyl)-2-oxoacetamido)-2-oxoimidazolidin-1-yl)-7-oxo-4-thia-1-azabicyclo[3.2.0]heptane-3-carboxylic acid] | 0.5 (≈ 0.604 µM) | 0.5 (≈ 0.604 µM) | 0.5 (≈ 0.604 µM) | 0.5 (≈ 0.604 µM) | < 0.06 | 0.5 (≈ 0.604 µM) | 0.25 (≈ 0.302 µM) | 0.5 (≈ 0.604 µM) | 2 (≈ 2.42 µM) | – | – | – | – | – | – | – | – | – |
| CC(C)(O/N=C(\C(=O)N[C@@H]1C(=O)N2C[C@@](C(=O)O)(N3CCN(NC(=O)C(=O)c4ccc(O)c(O)c4Cl)C3=O)S[C@H]12)c1csc(N)n1)C(=O)O [Example 20, (3R,5R,6R)-6-((Z)-2-(2-aminothiazol-4-yl)-2-(((2-carboxypropan-2-yl)oxy)imino)acetamido)-3-(3-(2-(2-chloro-3,4-dihydroxyphenyl)-2-oxoacetamido)-2-oxoimidazolidin-1-yl)-7-oxo-4-thia-1-azabicyclo[3.2.0]heptane-3-carboxylic acid] | 0.5 (≈ 0.675 µM) | 0.25 (≈ 0.337 µM) | 0.5 (≈ 0.675 µM) | 0.12 (≈ 0.162 µM) | < 0.06 | 0.25 (≈ 0.337 µM) | 0.12 (≈ 0.162 µM) | 0.5 (≈ 0.675 µM) | < 0.06 | – | – | – | – | – | – | – | – | – |
| CC(C)(O/N=C(\C(=O)N[C@@H]1C(=O)N2C[C@@](C(=O)O)(N3CCN(NC(=O)CCNC(=O)c4ccc(O)c(O)c4Cl)C3=O)S[C@H]12)c1csc(N)n1)C(=O)O [Example 28, (3R,5R,6R)-6-((Z)-2-(2-aminothiazol-4-yl)-2-(((2-carboxypropan-2-yl)oxy)imino)acetamido)-3-(3-(3-(2-chloro-3,4-dihydroxybenzamido)propanamido)-2-oxoimidazolidin-1-yl)-7-oxo-4-thia-1-azabicyclo[3.2.0]heptane-3-carboxylic acid] | 0.25 (≈ 0.319 µM) | 0.5 (≈ 0.638 µM) | 2 (≈ 2.55 µM) | 0.25 (≈ 0.319 µM) | < 0.06 | 0.25 (≈ 0.319 µM) | 1 (≈ 1.28 µM) | 0.5 (≈ 0.638 µM) | 2 (≈ 2.55 µM) | – | – | – | – | – | – | – | – | – |
